Entries after “also recorded” stand apart in the source; their conditions may differ.

We go through one substance from patent US7344531B2, “Thermal surgical procedures and compositions” (Regents of the University of Minnesota, priority 2003, dated 2008).

For assay [1], the system named is normal nude mouse hypodermis (normal skin). As to the kind of experiment: Cryosurgery of TNF-alpha pre-inflamed normal skin in dorsal skin flap chamber (DSFC). It counts as in vivo.
For assay [2], the system named is LNCaP Pro 5 human prostate cancer tumor tissue. As to the kind of experiment: Cryosurgery of TNF-alpha pre-inflamed LNCaP Pro 5 tumor in dorsal skin flap chamber (DSFC). It counts as in vivo, male athymic nude mice. On the procedure: The dorsal skin flap chamber (DSFC) of male athymic nude mice was seeded with the tumor LNCaP […] human prostate cancer, inflamed with TNF-alpha, subjected to cryosurgery, and assessed according to the following procedure. The dorsal skin of a male athymic nude mouse was sandwiched between two identical anodized aluminum frames, a 19 millimeter (mm) by 22 mm chamber was mounted onto the mouse by three screws, the skin was attached to the chamber with 4-O silk using suture holes, and the skin on the side of the viewing region was removed, exposing the dermis containing the microvasculature on the opposite side of the skin. To provide chambers having tumors, approximately 5×10^6LNCaP […] human prostate tumor cells were mixed with MATRIGEL matrix (BD Biosciences, Bedford, Mass.) as described by Lim et al. (Prostate, 22:109-118 (1993)). Approximately 30 μl of the cell suspension was applied to the surface of the microvascular bed immediately after the initial chamber implantation and the tumor was allowed to grow for 10 days, the skin reaching a total thickness of about 450 micrometers (μm) and the tumor extending approximately 10 mm in diameter. […] After four (4) hours, the mouse was anesthetized, TNF-alpha-induced inflammation was measured by observation of leukocyte rolling, and thereafter cryosurgery was immediately performed in the inflamed tissue. […] The temperature at each thermocouple was recorded using a HYDRA DATA LOGGER SERIES 2 (Fluke, Everett, Wash.). […] The dorsal skin flap chamber was then illuminated with a mercury lamp and a FITC signal-enhancing filter (λ=470-490 nm) to view the contrast fluorescence. A Silicon Intensified Transmission camera (Hamamatsu, North Central Instruments, Twin Cities, Minn.) was used to detect the fluorescent signal, and the signal was recorded with a JVC S-VHS video recorder (JVC Company of America, Aurora, Ill.). […] The end temperature of the cryolesion and the thermal parameters within the cryosurgical ice ball were calculated according to the methods of Chao et al. (Cryobiology, 2004 (in press)). […]

The test system of assay [3] is MCF-7 breast cancer cells. As to the kind of experiment: Enhancement of direct cellular injury by freeze/thaw after TNF-alpha exposure, MCF-7. It counts as cell-based.
For assay [4], the system named is Human dermal microvascular endothelial cells (MVEC). Kind of assay: Enhancement of direct cellular injury by freeze/thaw after TNF-alpha exposure, MVEC. It counts as cell-based. On the procedure:
Cell suspensions of human endothelial cells (MVECs) were used to assess the enhancement of direct cellular injury (DCI) by use of an adjuvant, wherein the adjuvant used is TNF-alpha.
Human dermal microvascular endothelial cells (MVEC) were prepared and grown as adherent monolayers as described by Gupta et al., Experimental Cell Research, 230:244-251 (1997), maintained in a 37° C./5% CO2/95% humidified air environment in T-flasks pre-coated with 1% gelatin in MCDB 131 medium supplemented with 20% heat-inactivated human male serum, hydrocortisone, cAMP, L-glutamine, heparin, endothelial cell growth supplement (Vec Tec, Schenectady, N.Y.) and antibiotics. […]
Control and experimental F/T groups were then assessed for cell viability at varying time points starting 3 hours after intervention. Cell viability was measured microscopically by a fluorescent dye assay (cell viability assay) by an apoptotic/necrotic assay.
The fluorescent dye assay was used to assess the plasma membrane integrity of cells immediately before (control) and after F/T using Hoechst 33342 and propidium iodide (PI). […] Cells were incubated with 9 μM Hoechst 33342 and 7 μM PI for 15 minutes at 37° C., placed on a microslide, cover-slipped and the percentage of dead cells/field determined at 200X using a fluorescent microscope (Olympus BX-50, Tokyo, Japan). […]

Assay [5] has as its system LNCaP Pro 5 prostate cancer cells. Kind of assay: Enhancement of direct cellular injury by freeze/thaw after TNF-alpha exposure, LNCaP Pro 5. The format is cell-based, human.
[6] abbreviates: TNF-alpha 10 ng/ml to 1 μg/ml for 4 to 48 hours before freeze/thaw.

On to TNF-alpha, for which the “minimum temperature required for cryo-destruction” value in assay [1] (TNF-alpha-treated normal skin) was −9.8±5.8 °C. The “position of the edge of the static zone relative to the edge of the ice ball” value in assay [1] (inflamed normal skin tissues treated with TNF-alpha) is on record as “stayed within the edge of the ice ball; also recorded: moved the edge of the static zone closer to the edge of the cryosurgical ice ball”; in assay [2] (LNCaP Pro 5 tumor tissues treated with TNF-alpha), “extended beyond the edge of the ice ball”. In addition, the “radius of the edge of the static zone (zone of vascular stasis)” value in assay [1] (normal nude mouse hypodermis treated with TNF-alpha, day 3 post cryosurgery) turned out to be 3.99±0.13 mm; in assay [2] (day 3 post cryosurgery, LNCaP Pro 5 tumor tissue, local 0.2 ng TNF-alpha 4 hours before cryosurgery), 4.07±0.34 mm. For the same substance, the “increase of the threshold temperature of cryo-destruction versus tissue without TNF-alpha” value in assay [2] (local use of TNF-alpha, LNCaP Pro 5 tumor tissue) is “more than 10 °C”. The “cryosensitivity of cells in vitro” value in assay [3] (setting [6]), in assay [4] (setting [6]) and in assay [5] (setting [6]) was “increase cryosensitivity” each time. The “necrosis of inflamed cells in vitro” value in assay [3] (apoptosis/necrosis assay), in assay [4] (apoptosis/necrosis assay) and in assay [5] (apoptosis/necrosis assay) was “increased necrosis” each time.
